Experimental findings from BindingDB's records for doi:10.1002/cbic.201402089 (University of Santiago De Compostela, 2014) are described below.

“And” between values parts separate entries of the source, which are not always exact repeats. Equal values may be shown once.

In the assay the target is T1, Kinesin-like protein KIF11 [1-973] (Homo sapiens, UniProt P52732).
T1 construct: 1-973
T1 sequence (P52732 whole entry): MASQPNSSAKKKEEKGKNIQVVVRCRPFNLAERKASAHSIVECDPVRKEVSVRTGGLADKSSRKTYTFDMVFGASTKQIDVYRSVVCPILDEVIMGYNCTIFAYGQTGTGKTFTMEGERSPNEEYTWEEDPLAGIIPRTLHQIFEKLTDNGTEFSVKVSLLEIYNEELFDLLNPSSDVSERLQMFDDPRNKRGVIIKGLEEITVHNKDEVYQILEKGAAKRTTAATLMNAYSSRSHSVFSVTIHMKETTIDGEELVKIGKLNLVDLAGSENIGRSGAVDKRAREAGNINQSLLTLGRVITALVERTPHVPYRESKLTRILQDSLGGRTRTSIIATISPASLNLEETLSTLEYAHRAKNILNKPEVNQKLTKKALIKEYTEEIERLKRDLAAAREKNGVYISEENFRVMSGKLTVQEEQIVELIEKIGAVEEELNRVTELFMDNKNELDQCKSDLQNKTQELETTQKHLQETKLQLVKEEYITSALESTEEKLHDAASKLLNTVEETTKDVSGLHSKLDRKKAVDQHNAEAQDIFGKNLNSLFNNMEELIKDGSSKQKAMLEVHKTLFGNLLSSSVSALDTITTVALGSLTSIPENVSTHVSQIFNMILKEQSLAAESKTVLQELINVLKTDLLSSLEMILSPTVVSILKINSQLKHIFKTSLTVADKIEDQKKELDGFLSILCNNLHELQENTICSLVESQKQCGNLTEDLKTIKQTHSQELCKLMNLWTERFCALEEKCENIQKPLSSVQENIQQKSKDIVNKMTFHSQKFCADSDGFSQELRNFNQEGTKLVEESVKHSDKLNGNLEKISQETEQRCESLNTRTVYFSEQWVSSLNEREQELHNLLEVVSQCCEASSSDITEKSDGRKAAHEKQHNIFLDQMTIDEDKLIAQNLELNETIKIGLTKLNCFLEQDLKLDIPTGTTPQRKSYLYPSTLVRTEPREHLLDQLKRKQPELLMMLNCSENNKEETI
The assay can be described thus: Microtubule-activated ATPase Kinetic Assay.
On to `CCOC(=O)CNC(=O)C(C1CC1)n1c(C(=O)c2ccccc2)nc2cc(Br)c(Br)cc21` (stereo not drawn) [(−)-Ethyl 2-[2-(2-benzoyl-5,6-dibromo-1H-benzo[d]imidazol-1-yl)-2 cyclopropylacetamido] acetate (Compound 21)], for which the half-maximal inhibitory concentration (IC50) was 1490 nM and 2520 nM.
The result for `CCCC(C(=O)NCC(=O)OCC)n1c(C(=O)c2ccccc2)nc2cc(Br)c(Br)cc21` (stereo not drawn) [(−)-Ethyl 2-[2-(2-benzoyl-5,6-dibromo-1H-benzo[d]imidazol-1-yl)pentanamido]acetate (Compound 23)] reads 1370 nM and 1720 nM; that for `CCCC(C(=O)NCC(=O)OCC)n1c(Cc2ccccc2)nc2cc(Cl)c(Cl)cc21` (stereo not given) [Ethyl 2-[2-(2-benzyl-5,6-dichloro-1H-benzo[d]imidazol-1-yl)pentanamido] acetate (Compound 9)], 1600 nM.
In turn, `CCOC(=O)CNC(=O)C(C1CC1)n1c(Cc2ccccc2)nc2cc(Br)c(Br)cc21` (stereo not given) [Ethyl 2-[2-(2-benzyl-5,6-dibromo-1H-benzo[d]imidazol-1-yl)-2-cyclopropylacetamido] acetate (Compound 12)] yielded an IC50 of 2290 nM.
To `CCOC(=O)C1C(C)=NC(=S)NC1c1cccc(O)c1` (stereo not given) [ethyl 4-(3-hydroxyphenyl)-6-methyl-2-sulfanylidene-3,4-dihydro-1H-pyrimidine-5-carboxylate] belongs 6900 nM.
